Reference: BindingDB's records for doi:10.1016/j.bmcl.2009.11.060 (Glaxosmithkline, 2010)

test: Inhibition of GSK3-beta phosphorylation in human BT474 cells

| Compound | IC50 |
| --- | --- |
| Cc1n[nH]c2ncc(-c3cc(OC[C@@H](N)Cc4c[nH]c5ccccc45)cnc3-c3ccoc3)cc12 [(S)-1-(6-(furan-3-yl)-5-(3-methyl-1H-pyrazolo[3,4-b]pyridin-5-yl)pyridin-3-yloxy)-3-(1H-indol-3-yl)propan-2-amine] | 260 nM |
| Cc1n[nH]c2cnc(-c3cc(OC[C@@H](N)Cc4c[nH]c5ccccc45)cnc3-c3ccoc3)cc12 [(S)-1-(6-(furan-3-yl)-5-(3-methyl-1H-pyrazolo[3,4-c]pyridin-5-yl)pyridin-3-yloxy)-3-(1H-indol-3-yl)propan-2-amine] | 64 nM |
| Cc1n[nH]c2ncc(-c3cc(OC[C@@H](N)Cc4c[nH]c5ccccc45)cnc3-c3ccoc3)nc12 [(S)-1-(6-(furan-3-yl)-5-(3-methyl-1H-pyrazolo[4,3-b]pyrazin-5-yl)pyridin-3-yloxy)-3-(1H-indol-3-yl)propan-2-amine] | 160 nM |
| Cc1n[nH]c2ccc(-c3cc(OC[C@@H](N)Cc4c[nH]c5ccccc45)cnc3-c3ccoc3)nc12 [(S)-1-(6-(furan-3-yl)-5-(3-methyl-1H-pyrazolo[4,3-b]pyridin-5-yl)pyridin-3-yloxy)-3-(1H-indol-3-yl)propan-2-amine] | 3860 nM |
